Molecular target: TrkA (Homo sapiens (Human), UniProt P04629)
Experiment: TrkA Omnia Assay
Assay type: biochemical
Details: averaged IC50; 20 nM enzyme, 500 μM ATP, 10 μM peptide substrate
Method in brief: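 Recombinant TrkA (20 nM) preincubated 10 min at ambient temperature with compound, then Omnia Tyr Peptide #4 (10 μM) and ATP (500 μM) added in 25 mM MOPS pH 7.5, 5 mM MgCl2, 0.005% Triton X-100. Fluorescence (ex 360/em 485 nm) followed continuously for 70 min; IC50 from initial rates by 4- or 5-parameter logistic fit.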

Chain of TrkA (P04629 33-796): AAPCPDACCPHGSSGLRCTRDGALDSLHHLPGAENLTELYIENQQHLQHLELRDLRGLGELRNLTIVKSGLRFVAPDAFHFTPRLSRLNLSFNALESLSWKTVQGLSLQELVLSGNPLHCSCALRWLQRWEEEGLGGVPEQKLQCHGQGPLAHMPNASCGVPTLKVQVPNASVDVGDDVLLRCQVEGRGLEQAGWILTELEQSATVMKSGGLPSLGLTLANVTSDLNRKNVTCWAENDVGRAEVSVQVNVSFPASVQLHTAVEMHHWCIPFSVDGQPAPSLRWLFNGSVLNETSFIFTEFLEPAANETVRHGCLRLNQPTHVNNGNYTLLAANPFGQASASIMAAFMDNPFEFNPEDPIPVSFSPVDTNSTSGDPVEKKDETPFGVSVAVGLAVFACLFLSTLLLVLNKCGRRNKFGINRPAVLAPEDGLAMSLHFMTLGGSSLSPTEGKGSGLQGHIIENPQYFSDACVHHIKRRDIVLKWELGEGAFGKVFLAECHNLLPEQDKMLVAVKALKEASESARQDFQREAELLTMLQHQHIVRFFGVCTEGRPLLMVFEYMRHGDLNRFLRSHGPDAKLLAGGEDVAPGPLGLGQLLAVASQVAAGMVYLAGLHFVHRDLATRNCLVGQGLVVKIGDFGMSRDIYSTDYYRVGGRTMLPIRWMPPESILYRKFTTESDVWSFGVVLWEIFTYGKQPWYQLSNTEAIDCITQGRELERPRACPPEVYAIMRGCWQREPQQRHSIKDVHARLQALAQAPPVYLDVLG

SMILES	IC50 [nM]
COCCN1C[C@@H](NC(=O)Nc2c(C)c(OC[C@H](C)O)nn2-c2ccccc2)[C@H](c2cc(F)c(F)c(F)c2)C1 [Example 561, 1-(3-((S)-2-hydroxypropoxy)-4-methyl-1-phenyl-1H-pyrazol-5-yl)-3-((3S,4R)-1-(2-methoxyethyl)-4-(3,4,5-trifluorophenyl)pyrrolidin-3-yl)urea]	< 100
COCCN1C[C@@H](NC(=O)Nc2c(C)c(OC[C@@H](O)COC)nn2-c2ccccc2)[C@H](c2ccc(F)c(F)c2)C1 [Example 562, 1-((3S,4R)-4-(3,4-difluorophenyl)-1-(2-methoxyethyl)pyrrolidin-3-yl)-3-(3-((S)-2-hydroxy-3-methoxypropoxy)-4-methyl-1-phenyl-1H-pyrazol-5-yl)urea]	< 100
COCCN1C[C@@H](NC(=O)Nc2c(C)c(OC[C@@H](O)COC)nn2-c2ccccc2)[C@H](c2cc(F)c(F)c(F)c2)C1 [Example 564, 1-(3-((S)-2-hydroxy-3-methoxypropoxy)-4-methyl-1-phenyl-1H-pyrazol-5-yl)-3-((3S,4R)-1-(2-methoxyethyl)-4-(3,4,5-trifluorophenyl)pyrrolidin-3-yl)urea]	< 100
COCCN1C[C@@H](NC(=O)Nc2c(C)c(OC[C@H](O)COC)nn2-c2ccccc2)[C@H](c2cc(F)c(F)c(F)c2)C1 [Example 565, 1-(3-((R)-2-hydroxy-3-methoxypropoxy)-4-methyl-1-phenyl-1H-pyrazol-5-yl)-3-((3S,4R)-1-(2-methoxyethyl)-4-(3,4,5-trifluorophenyl)pyrrolidin-3-yl)urea]	< 100
COCCN1C[C@@H](NC(=O)Nc2c(Cl)c(C3CCN(C(=O)OC(C)(C)C)CC3)nn2-c2ccccc2)[C@H](c2ccc(F)c(F)c2)C1 [Example 569, Tert-butyl 4-(4-chloro-5-(3-((3S,4R)-4-(3,4-difluorophenyl)-1-(2-methoxyethyl)pyrrolidin-3-yl)ureido)-1-phenyl-1H-pyrazol-3-yl)piperidine-1-carboxylate]	< 100
COCCN1C[C@@H](NC(=O)Nc2c(Cl)c(C3CCOCC3)nn2-c2ccccc2)[C@H](c2ccc(F)cc2)C1 [Example 570, 1-(4-chloro-1-phenyl-3-(tetrahydro-2H-pyran-4-yl)-1H-pyrazol-5-yl)-3-((3S,4R)-4-(4-fluorophenyl)-1-(2-methoxyethyl)pyrrolidin-3-yl)urea]	< 100

Results, then the compound that gave them:

IC50 [nM]	SMILES
< 100	COCCN1C[C@@H](NC(=O)Nc2c(C)c(OC[C@H](O)COC)nn2-c2ccccc2)[C@H](c2ccc(F)c(F)c2)C1 [Example 563, 1-((3S,4R)-4-(3,4-difluorophenyl)-1-(2-methoxyethyl)pyrrolidin-3-yl)-3-(3-((R)-2-hydroxy-3-methoxypropoxy)-4-methyl-1-phenyl-1H-pyrazol-5-yl)urea]
100 to 1000	COCCN1C[C@@H](NC(=O)Nc2c(Br)c(-c3cnn(C)c3)nn2C)[C@H](c2ccc(F)c(F)c2)C1 [Example 566, 1-(4-bromo-1,1′-dimethyl-1H, 1′H-[3,4′-bipyrazol]-5-yl)-3-((3S,4R)-4-(3,4-difluorophenyl)-1-(2-methoxyethyl)pyrrolidin-3-yl)urea]
100 to 1000	COCCN1C[C@@H](NC(=O)Nc2c(Cl)c(-c3cnn(C)c3)nn2C)[C@H](c2ccc(F)c(F)c2)C1 [Example 567, 1-(4-chloro-1,1′-dimethyl-1H, 1′H-[3,4′-bipyrazol]-5-yl)-3-((3S,4R)-4-(3,4-difluorophenyl)-1-(2-methoxyethyl)pyrrolidin-3-yl)urea]
< 100	COCCN1C[C@@H](NC(=O)Nc2c(Cl)c(C3CCOCC3)nn2-c2ccccc2)[C@H](c2ccc(F)c(F)c2)C1 [Example 568, 1-(4-chloro-1-phenyl-3-(tetrahydro-2H-pyran-4-yl)-1H-pyrazol-5-yl)-3-((3S,4R)-4-(3,4-difluorophenyl)-1-(2-methoxyethyl)pyrrolidin-3-yl)urea]

Reference: US10323022B2, “Pyrrolidinyl urea, pyrrolidinyl thiourea and pyrrolidinyl guanidine compounds as TrkA kinase inhibitors” (Array BioPharma Inc., priority 2011, dated 2019)
